From patent publication US10413535B2, “Pharmaceutical compositions comprising an integrin ALPHA4 antagonist for use in treating ocular inflammatory conditions” (AXEROVISION, INC., priority 2015, dated 2019)
Entries after “also recorded” stand apart in the source; their conditions may differ.

What was measured:
[1] = tested on: IL-1α, MMP-9, CXCL9, TGF-β1 expression; assay: Inflammatory marker gene expression in cornea and conjunctiva (real time PCR), desiccating stress model; assay type: in vivo, mouse; conditions: topical 30 mg/mL, 5 days DS, vs vehicle
Procedure: (§1) Female C57BL/6 mice, aged 6 to 8 weeks, were subjected to DS for 5 days (DS5) as described previously (de Paiva et al., 2006b; Niederkorn et al., 2006). Topical bilateral treatment with 1 eye drop per eye (2 μL volume) or subcutaneous injection (4 μL volume), 2 times per day, was initiated on day 1 concurrently with DS and continued through day 4. Treatment with the compound of formula I or dexamethasone phosphate 0.1% was compared to correspondingly treated vehicle controls. Mice were randomized to receive one of the test articles. Control mice were kept in a non-stressed (NS) environment maintained at 50-75% relative humidity without exposure to airflow or scopolamine and were not treated with test or control article. Treatment effects were assessed on corneal staining with Oregon Green Dextran (OGD); expression of inflammatory markers in ocular surface tissues by real time PCR; cell population analysis in draining cervical lymph nodes by FACS analysis; conjunctival T cell infiltration by immunohistochemistry.
Total RNA was isolated from corneal and conjunctival epithelia that was collected and pooled from 2 eyes (right and left) at each time point from untreated control mice, mice subjected to DS for 5 days (DS5), DS5 mice topically treated with the compound of formula I ([…]) and vehicle treated animals (n=7/group) using a PicoPure™ RNA Isolation Kit (Acturus Bioscience Inc, Mountain View, Calif., USA) following the manufacturer's protocol. Briefly, corneal epithelial cells were scraped and whole conjunctiva was cut and placed in 100 μL of extraction buffer and incubated at 42° C. for 30 minutes. The cell extract was loaded onto a preconditioned purified column, which was centrifuged, treated with DNase (Qiagen, Valencia, Calif., USA) and washed twice with two different wash buffers. The RNA was eluded in 12 μL of low ionic strength buffer. The RNA concentration was measured by absorption at 260 nm using a spectrophotometer (NanoDrop 2000, Thermo Scientific, Wilmington, Del., USA) and samples were stored at −80° C. until use. First-strand cDNA was synthesized from 1 μg of total RNA with random hexamers using M-MuLV reverse transcriptase (Ready-To-Go You-Prime First-Strand Beads; Amersham Pharmacia Biotech, Inc., Piscataway, N.J.) as previously described (de Paiva et al., 2006a).
A cDNA aliquot (1-4 μL) from samples was used for real time PCR in a total volume of 10 μL containing the following per reaction: 0.3 μL of gene specific Taqman probes used and 5 μL of 2× Taqman Fast PCR Master Mix, (Applied Biosystems). Real time PCR was performed on a StepOnePlus™ Real-Time PCR System (Applied Biosystems) and the parameters consisted of pre-denaturation at 95° C. for 22 sec, followed by 40 cycles of denaturation at 95° C. for 1 sec, annealing and extension at 60° C. for 20 sec. Samples and standards were assayed in duplicate. A non-template control and total RNA without retrotranscription were included in all the experiments to evaluate PCR and DNA contamination of the reagents used. The following mouse Taqman probes were used: IL-1α (Mm00439620); MMP-9 (Mm00442991); CXCL9 (Mm004434946); TGF-β1 (Mm00441724) and HPRT-1 (Mm00446968). The HPRT-1 gene was used as an endogenous reference for each reaction. The results of quantitative PCR were analyzed by the comparative CT method where target change=2-ΔΔ CT. The results were normalized by the CT value of HPRT-1 of the untreated control group (de Paiva et al., 2006b).
Due to skewed distribution of OGD data, the analysis was done on the log 10 scale to make the data more normally distributed. Log 10 OGD data was averaged across two observers and the left and right eyes. The mixed effects ANOVA model included treatment group as a fixed effect and week as a random effect. 95% and 99% confidence intervals were constructed for the disease (5 day DS vs untreated group kept in separate vivarium) and compound treatment effects (treatment vs vehicle). […]

[2] = tested on: C57BL/6 mice subjected to desiccating stress; assay: Corneal OGD staining in murine desiccating stress model; assay type: in vivo, mouse
Procedure: as §1
On the morning of the 5th day, mice received one s.c. dose of scopolamine. Two hours later corneal staining was assessed using Oregon Green Dextran (OGD-488), which is a conjugated fluorescent dye of a 70 kDa molecular size (Invitrogen-Molecular Probes) as previously described (de Paiva et al., 2006b). The procedure consisted of instillation of 0.5 μL of OGD on the cornea using a glass capillary pipette, 1 minute before euthanasia. Mice were euthanized by inhalation of isoflurane gas followed by cervical dislocation. Eyes were then rinsed with 2 mL of BSS. Excess liquid was carefully blotted from the ocular surface with filter papers without touching the cornea. Digital pictures of both eyes were taken under 470 nm excitation and 488 nm emission wave lengths using a Nikon SMZ-1500 stereo microscope, with an exposure time of 2 seconds. Both eyes from each animal were evaluated; the right eye always first followed by the left eye. The mean intensity in the central cornea was evaluated from digital images using NIS Elements (version 3.0) by placing a fixed region of interest (a 2-mm diameter circle) on the central cornea. The mean intensity of the fluorescence was read by the software and stored in a database (Excel, Microsoft). This fluorescence measurement in the central ring was done independently by 2 masked observers, for each mouse eye. By the conclusion of the experiment, results were averaged from both observers using all data collected during all study weeks (Excel, Microsoft). Results are presented as geometric mean±95% confidence interval of gray levels.
Due to skewed distribution of OGD data, the analysis was done on the log 10 scale to make the data more normally distributed. Log 10 OGD data was averaged across two observers and the left and right eyes. The mixed effects ANOVA model included treatment group as a fixed effect and week as a random effect. 95% and 99% confidence intervals were constructed for the disease (5 day DS vs untreated group kept in separate vivarium) and compound treatment effects (treatment vs vehicle). As these comparisons were all pre-planned (comparing each treatment to its vehicle group), no adjustment was made for multiplicity. […] T cell density was calculated for each section and averaged across sections for each animal. […]

Cc1ccccc1OCC(=O)N[C@@H](CC(C)C)C(=O)N[C@@H](Cc1ccc(OC(=O)N2CCC(C(N)=O)CC2)cc1)C(=O)O [GW559090, (2S)-3-[4-({[4-(Aminocarbonyl)-1-piperidinyl]carbonyl}oxy)phenyl]-2-[((2S)-4-methyl-2-{[2-(2-methylphenoxy)acetyl]amino}pentanoyl)amino]propanoic acid]
CXCL9 transcripts in cornea [1]: significant decrease | CXCL-9 expression in conjunctiva [1]: no change | IL-1α expression in conjunctiva [1]: no change | IL-1α transcripts in cornea [1]: significant decrease | MMP-9 expression in conjunctiva [1]: no change | MMP-9 transcripts in cornea [1]: significant decrease | TGF-β1 expression in conjunctiva [1]: significant reduction | TGF-β1 transcripts in cornea [1]: significant decrease | OGD intensity score (corneal barrier disruption) ([2]; subcutaneous 120 μg 2 times per day, 5 days DS): not observed | OGD intensity score (corneal staining / corneal barrier disruption) ([2]; topical bilateral 2 times per day, 5 days DS, vs vehicle (GW559090 1-30 mg/mL; Dex 0.1%), listed as compound of formula I): significant decrease; also recorded: significantly decreased; also recorded: dose-dependently prevents | Most efficacious concentration on OGD intensity score ([2]; topical, 1 to 30 mg/mL investigated): 30 mg/mL
